Measurements from patent US20230085307A1, “PYRIDAZINONE COMPOUND AND HERBICIDE” (NISSAN CHEMICAL CORPORATION, priority 2019, published 2023).

Assays:
late watergrass = assay: Test Example 1: herbicidal activity, application before weed generation under submerged conditions (Table 16, symbol A); format: in vivo, late watergrass (Echinochloa oryzicola); conditions: amount of applied herbicide 320 g/ha
In short: (§1)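 Alluvial soil was flooded to 4 cm depth, weed seeds were sown mixed and 2.5-leaf rice seedlings were transplanted. On sowing day, the compound's emulsion, diluted in water to a set dose, was applied to the water surface. Plants grew at 25–30 °C and were scored 0–5 after three weeks.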

Japanese bulrush = assay: Test Example 1: herbicidal activity, application before weed generation under submerged conditions (Table 16, symbol B); format: in vivo, Japanese bulrush (Schoenoplectus juncoides); conditions: amount of applied herbicide 320 g/ha
In short: as §1

oval-leafed pondweed = assay: Test Example 1: herbicidal activity, application before weed generation under submerged conditions (Table 16, symbol C); format: in vivo, oval-leafed pondweed (Monochoria vaginalis); conditions: amount of applied herbicide 320 g/ha
In short: as §1

barnyard grass [1] = assay: Test Example 3: herbicidal effect by foliage application, Wagner pot (Table 18, symbol H); format: in vivo, barnyard grass (Echinochloa crus-galli)
In short: (§2)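 Plants were sown in alluvial soil held under 0.1–0.5 cm standing water and grown 14 days in a greenhouse at 25–30 °C. An emulsifiable formulation, water-diluted to the set dose, was then sprayed onto the foliage, and effects were scored three weeks later using previously defined criteria.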

Chinese sprangletop = assay: Test Example 3: herbicidal effect by foliage application, Wagner pot (Table 18, symbol D); format: in vivo, chinese sprangletop (Leptochloa chinensis)
In short: as §2

rice flat sedge = assay: Test Example 3: herbicidal effect by foliage application, Wagner pot (Table 18, symbol E); format: in vivo, rice flat sedge (Cyperus iria)
In short: as §2

southern crabgrass [2] = assay: Test Example 4: herbicidal effect by soil treatment (Table 19, symbol F); format: in vivo, southern crabgrass (Digitaria ciliaris); conditions: amount of applied herbicide 320 g/ha
In short: (§3)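 Seeds were sown in sterilized diluvial soil and covered with about 1.5 cm of soil. An emulsion formulation diluted with water to a predetermined herbicide amount was sprayed evenly onto the soil surface. Plants grew in a greenhouse at 25° C. to 30° C., and the effect was scored three weeks after application using criteria from an earlier test.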

green foxtail [3] = assay: Test Example 4: herbicidal effect by soil treatment (Table 19, symbol G); format: in vivo, green foxtail (Setaria viridis); conditions: amount of applied herbicide 320 g/ha
In short: as §3

barnyard grass [4] = assay: Test Example 4: herbicidal effect by soil treatment (Table 19, symbol H); format: in vivo, barnyard grass (Echinochloa crus-galli); conditions: amount of applied herbicide 320 g/ha
In short: as §3

wild oat [5] = assay: Test Example 4: herbicidal effect by soil treatment (Table 19, symbol I); format: in vivo, wild oat (Avena fatua); conditions: amount of applied herbicide 320 g/ha
In short: as §3

blackgrass [6] = assay: Test Example 4: herbicidal effect by soil treatment (Table 19, symbol J); format: in vivo, blackgrass (Alopecurus myosuroides); conditions: amount of applied herbicide 320 g/ha
In short: as §3

Italian ryegrass [7] = assay: Test Example 4: herbicidal effect by soil treatment (Table 19, symbol K); format: in vivo, Italian ryegrass (Lolium multiflorum); conditions: amount of applied herbicide 320 g/ha
In short: as §3

windgrass [8] = assay: Test Example 4: herbicidal effect by soil treatment (Table 19, symbol L); format: in vivo, windgrass (Apera spica-venti); conditions: amount of applied herbicide 320 g/ha
In short: as §3

velvetleaf [9] = assay: Test Example 4: herbicidal effect by soil treatment (Table 19, symbol M); format: in vivo, velvetleaf (Abutilon theophrasti); conditions: amount of applied herbicide 320 g/ha
In short: as §3

redroot pigweed [10] = assay: Test Example 4: herbicidal effect by soil treatment (Table 19, symbol N); format: in vivo, redroot pigweed (Amaranthus retroflexus); conditions: amount of applied herbicide 320 g/ha
In short: as §3

lambsquarters [11] = assay: Test Example 4: herbicidal effect by soil treatment (Table 19, symbol O); format: in vivo, lambsquarters (Chenopodium album); conditions: amount of applied herbicide 320 g/ha
In short: as §3

chickweed [12] = assay: Test Example 4: herbicidal effect by soil treatment (Table 19, symbol P); format: in vivo, common chickweed (Stellaria media); conditions: amount of applied herbicide 320 g/ha
In short: as §3

false cleavers = assay: Test Example 4: herbicidal effect by soil treatment (Table 19, symbol Q); format: in vivo, false cleavers (Galium spurium); conditions: amount of applied herbicide 320 g/ha
In short: as §3

persian speedwell [13] = assay: Test Example 4: herbicidal effect by soil treatment (Table 19, symbol R); format: in vivo, Persian speedwell (Veronica persica); conditions: amount of applied herbicide 320 g/ha
In short: as §3

southern crabgrass [14] = assay: Test Example 5: herbicidal effect by foliage application, plastic box (Table 20, symbol F); format: in vivo, southern crabgrass (Digitaria ciliaris); conditions: foliage application, 320 g/ha, three weeks after application
In short: (§4)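 Plants sown in sterilized diluvial soil and grown 14 days in a greenhouse at 25° C to 30° C, then sprayed on the foliage with the compound's emulsion diluted in water to a predetermined herbicide amount. Injury to weeds and crops scored three weeks after application on a visual rating scale.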

green foxtail [15] = assay: Test Example 5: herbicidal effect by foliage application, plastic box (Table 20, symbol G); format: in vivo, green foxtail (Setaria viridis); conditions: foliage application, 320 g/ha, three weeks after application
In short: as §4

barnyard grass [16] = assay: Test Example 5: herbicidal effect by foliage application, plastic box (Table 20, symbol H); format: in vivo, barnyard grass (Echinochloa crus-galli); conditions: foliage application, 320 g/ha, three weeks after application
In short: as §4

wild oat [17] = assay: Test Example 5: herbicidal effect by foliage application, plastic box (Table 20, symbol I); format: in vivo, wild oat (Avena fatua); conditions: foliage application, 320 g/ha, three weeks after application
In short: as §4

blackgrass [18] = assay: Test Example 5: herbicidal effect by foliage application, plastic box (Table 20, symbol J); format: in vivo, blackgrass (Alopecurus myosuroides); conditions: foliage application, 320 g/ha, three weeks after application
In short: as §4

Italian ryegrass [19] = assay: Test Example 5: herbicidal effect by foliage application, plastic box (Table 20, symbol K); format: in vivo, Italian ryegrass (Lolium multiflorum); conditions: foliage application, 320 g/ha, three weeks after application
In short: as §4

windgrass [20] = assay: Test Example 5: herbicidal effect by foliage application, plastic box (Table 20, symbol L); format: in vivo, windgrass (Apera spica-venti); conditions: foliage application, 320 g/ha, three weeks after application
In short: as §4

velvetleaf [21] = assay: Test Example 5: herbicidal effect by foliage application, plastic box (Table 20, symbol M); format: in vivo, velvetleaf (Abutilon theophrasti); conditions: foliage application, 320 g/ha, three weeks after application
In short: as §4

lambsquarters [22] = assay: Test Example 5: herbicidal effect by foliage application, plastic box (Table 20, symbol O); format: in vivo, lambsquarters (Chenopodium album); conditions: foliage application, 320 g/ha, three weeks after application
In short: as §4

persian speedwell [23] = assay: Test Example 5: herbicidal effect by foliage application, plastic box (Table 20, symbol R); format: in vivo, Persian speedwell (Veronica persica); conditions: foliage application, 320 g/ha, three weeks after application
In short: as §4

redroot pigweed [24] = assay: Test Example 5: herbicidal effect by foliage application, plastic box (Table 20, symbol N); format: in vivo, redroot pigweed (Amaranthus retroflexus); conditions: foliage application, 320 g/ha, three weeks after application
In short: as §4

chickweed [25] = assay: Test Example 5: herbicidal effect by foliage application, plastic box (Table 20, symbol P); format: in vivo, common chickweed (Stellaria media); conditions: foliage application, 320 g/ha, three weeks after application
In short: as §4

[26] = amount of applied herbicide 320 g/ha

Cc1nn(C)c(=O)c(-c2c(-c3ccc(OC(F)F)cc3)sc3cc(F)c(F)cc23)c1O [5-084]
Herbicidal effect, A: late watergrass (late watergrass): 3 (Herbicidal rate of 40% or more and less than 70%)
Herbicidal effect, B: Japanese bulrush (Japanese bulrush): 2 (Herbicidal rate of 20% or more and less than 40%)
Herbicidal effect, C: oval-leafed pondweed (oval-leafed pondweed): 0 (Herbicidal rate of 5% or less (almost no effect))
herbicidal effect on barnyard grass (H) (barnyard grass [1]; 320 g/ha): 4 (Herbicidal rate of 70% or more and less than 90%)
herbicidal effect on Chinese sprangletop (D) (Chinese sprangletop; 320 g/ha): 0 (Herbicidal rate of 5% or less (almost no effect))
herbicidal effect on rice flat sedge (E) (rice flat sedge; 320 g/ha): 3 (Herbicidal rate of 40% or more and less than 70%)
F: southern crabgrass, herbicidal effect grade (southern crabgrass [2]): 0 (Herbicidal rate of 5% or less (almost no effect))
G: green foxtail, herbicidal effect grade (green foxtail [3]): 2 (Herbicidal rate of 20% or more and less than 40%)
H: barnyard grass, herbicidal effect grade (barnyard grass [4]): 1 (Herbicidal rate of 5% or more and less than 20%)
I: wild oat, herbicidal effect grade (wild oat [5]): 0 (Herbicidal rate of 5% or less (almost no effect))
J: blackgrass, herbicidal effect grade (blackgrass [6]): 0 (Herbicidal rate of 5% or less (almost no effect))
K: Italian ryegrass, herbicidal effect grade (Italian ryegrass [7]): 0 (Herbicidal rate of 5% or less (almost no effect))
L: windgrass, herbicidal effect grade (windgrass [8]): 5 (Herbicidal rate of 90% or more (almost completely withered))
M: velvetleaf, herbicidal effect grade (velvetleaf [9]): 4 (Herbicidal rate of 70% or more and less than 90%)
N: redroot pigweed, herbicidal effect grade (redroot pigweed [10]): 5 (Herbicidal rate of 90% or more (almost completely withered))
O: lambsquarters, herbicidal effect grade (lambsquarters [11]): 5 (Herbicidal rate of 90% or more (almost completely withered))
P: chickweed, herbicidal effect grade (chickweed [12]): 0 (Herbicidal rate of 5% or less (almost no effect))
Q: false cleavers, herbicidal effect grade (false cleavers): 2 (Herbicidal rate of 20% or more and less than 40%)
R: persian speedwell, herbicidal effect grade (persian speedwell [13]): 3 (Herbicidal rate of 40% or more and less than 70%)
herbicidal effect on southern crabgrass (F) (southern crabgrass [14]): 4 (Herbicidal rate of 70% or more and less than 90%)
herbicidal effect on green foxtail (G) (green foxtail [15]): 4 (Herbicidal rate of 70% or more and less than 90%)
herbicidal effect on barnyard grass (H) (barnyard grass [16]): 2 (Herbicidal rate of 20% or more and less than 40%)
herbicidal effect on wild oat (I) (wild oat [17]): 3 (Herbicidal rate of 40% or more and less than 70%)
herbicidal effect on blackgrass (J) (blackgrass [18]): 4 (Herbicidal rate of 70% or more and less than 90%)
herbicidal effect on Italian ryegrass (K) (Italian ryegrass [19]): 5 (Herbicidal rate of 90% or more (almost completely withered))
herbicidal effect on windgrass (L) (windgrass [20]): 5 (Herbicidal rate of 90% or more (almost completely withered))
herbicidal effect on velvetleaf (M) (velvetleaf [21]): 5 (Herbicidal rate of 90% or more (almost completely withered))
herbicidal effect on lambsquarters (O) (lambsquarters [22]): 5 (Herbicidal rate of 90% or more (almost completely withered))
herbicidal effect on persian speedwell (R) (persian speedwell [23]): 5 (Herbicidal rate of 90% or more (almost completely withered))

COc1ccccc1-c1sc2ccc(F)cc2c1-c1c(O)c(C)nn(CC#N)c1=O [2-431]
Herbicidal effect, A: late watergrass (late watergrass): 2 (Herbicidal rate of 20% or more and less than 40%)
Herbicidal effect, B: Japanese bulrush (Japanese bulrush): 0 (Herbicidal rate of 5% or less (almost no effect))
Herbicidal effect, C: oval-leafed pondweed (oval-leafed pondweed): 0 (Herbicidal rate of 5% or less (almost no effect))
herbicidal effect on H: barnyard grass (barnyard grass [1]; [26]): 5 (Herbicidal rate of 90% or more (almost completely withered))
herbicidal effect on D: Chinese sprangletop (Chinese sprangletop; [26]): 3 (Herbicidal rate of 40% or more and less than 70%)
herbicidal effect on E: rice flat sedge (rice flat sedge; [26]): 5 (Herbicidal rate of 90% or more (almost completely withered))
herbicidal effect, F: southern crabgrass (southern crabgrass [2]): 0 (Herbicidal rate of 5% or less (almost no effect))
herbicidal effect, G: green foxtail (green foxtail [3]): 0 (Herbicidal rate of 5% or less (almost no effect))
herbicidal effect, H: barnyard grass (barnyard grass [4]): 0 (Herbicidal rate of 5% or less (almost no effect))
herbicidal effect, I: wild oat (wild oat [5]): 0 (Herbicidal rate of 5% or less (almost no effect))
herbicidal effect, J: blackgrass (blackgrass [6]): 0 (Herbicidal rate of 5% or less (almost no effect))
herbicidal effect, K: Italian ryegrass (Italian ryegrass [7]): 0 (Herbicidal rate of 5% or less (almost no effect))
herbicidal effect, L: windgrass (windgrass [8]): 0 (Herbicidal rate of 5% or less (almost no effect))
herbicidal effect, M: velvetleaf (velvetleaf [9]): 1 (Herbicidal rate of 5% or more and less than 20%)
herbicidal effect, N: redroot pigweed (redroot pigweed [10]): 5 (Herbicidal rate of 90% or more (almost completely withered))
herbicidal effect, O: lambsquarters (lambsquarters [11]): 1 (Herbicidal rate of 5% or more and less than 20%)
herbicidal effect, Q: false cleavers (false cleavers): 0 (Herbicidal rate of 5% or less (almost no effect))
herbicidal effect, R: persian speedwell (persian speedwell [13]): 0 (Herbicidal rate of 5% or less (almost no effect))
F: southern crabgrass, herbicidal effect grade (southern crabgrass [14]): 0 (Herbicidal rate of 5% or less (almost no effect))
G: green foxtail, herbicidal effect grade (green foxtail [15]): 0 (Herbicidal rate of 5% or less (almost no effect))
H: barnyard grass, herbicidal effect grade (barnyard grass [16]): 0 (Herbicidal rate of 5% or less (almost no effect))
I: wild oat, herbicidal effect grade (wild oat [17]): 0 (Herbicidal rate of 5% or less (almost no effect))
J: blackgrass, herbicidal effect grade (blackgrass [18]): 0 (Herbicidal rate of 5% or less (almost no effect))
K: Italian ryegrass, herbicidal effect grade (Italian ryegrass [19]): 0 (Herbicidal rate of 5% or less (almost no effect))
L: windgrass, herbicidal effect grade (windgrass [20]): 0 (Herbicidal rate of 5% or less (almost no effect))
M: velvetleaf, herbicidal effect grade (velvetleaf [21]): 2 (Herbicidal rate of 20% or more and less than 40%)
N: redroot pigweed, herbicidal effect grade (redroot pigweed [24]): 3 (Herbicidal rate of 40% or more and less than 70%)
O: lambsquarters, herbicidal effect grade (lambsquarters [22]): 1 (Herbicidal rate of 5% or more and less than 20%)
P: chickweed, herbicidal effect grade (chickweed [25]): 5 (Herbicidal rate of 90% or more (almost completely withered))
R: persian speedwell, herbicidal effect grade (persian speedwell [23]): 3 (Herbicidal rate of 40% or more and less than 70%)
